Test results: US12052991B2, “Substituted pyridinyloxybenzenes and salts thereof and use thereof as herbicidal agents” (Bayer Aktiengesellschaft, priority 2018, dated 2024)

Assays:
Type in all cases: in vivo
[1] = test system: corn (ZEAMX, var. Aventura); experiment: Pre-emergence crop plant compatibility (Table E1); details: dosage 80 g/ha, scored after about 3 weeks, 0% = like control plants
From the text: (§1) Seeds of monocotyledonous and dicotyledonous crop plants were placed in plastic or organic plant pots and covered with soil. The compounds of the invention, formulated in the form of wettable powders (WP) or as emulsion concentrates (EC), were then applied to the surface of the covering soil as aqueous suspension or emulsion with addition of 0.5% additive at a water application rate equivalent to 600 l/ha (converted). After the treatment, the pots were placed in a greenhouse and kept under good growth conditions for the test plants. After about 3 weeks, the effect of the preparations was scored visually in comparison with untreated controls as percentages. For example, 100% activity=the plants have died, 0% activity=like control plants.

[2] = test system: soybean (GLXMA, var. Sultana); experiment: Pre-emergence crop plant compatibility (Table E1); details: dosage 80 g/ha, scored after about 3 weeks, 0% = like control plants
From the text: as §1

[3] = test system: wheat (TRZAS, var. Triso); experiment: Pre-emergence crop plant compatibility (Table E1); details: dosage 80 g/ha, scored after about 3 weeks, 0% = like control plants
From the text: as §1

Veronica persica (VERPE) [4] = experiment: Herbicidal pre-emergence action, test D, single sowings (Table D8); details: dosage 80 g/ha, scored after about 3 weeks
From the text: (§2) Seeds of monocotyledonous and dicotyledonous weed plants were laid out in plastic or organic plant pots (single sowings with one species of mono- or dicotyledonous weed plant per pot) and covered with soil. The compounds of the invention, formulated in the form of wettable powders (WP) or as emulsion concentrates (EC), were then applied to the surface of the covering soil as aqueous suspension or emulsion with addition of 0.5% additive at a water application rate equivalent to 600 l/ha (converted). After the treatment, the pots were placed in a greenhouse and kept under good growth conditions for the test plants. After about 3 weeks, the effect of the preparations was scored visually in comparison with untreated controls as percentages. For example, 100% activity=the plants have died, 0% activity=like control plants. Tables D1 to D8 below show the effects of selected compounds of the general formula (I) according to Table 1 on various harmful plants and an application rate corresponding to 80 g/ha, which were obtained by the experimental procedure mentioned above.

Setaria viridis (SETVI) = experiment: Herbicidal pre-emergence action, test D, single sowings (Table D3); details: dosage 80 g/ha, scored after about 3 weeks
From the text: as §2

[5] = test system: Digitaria sanguinalis (DIGSA); experiment: Herbicidal pre-emergence action, test D, single sowings (Table D2); details: 80 g/ha; scored visually after about 3 weeks; 100% = plants have died, 0% = like control plants
From the text: as §2

[6] = test system: soybean (GLXMA, var. Sultana), wheat (TRZAS, var. Triso) and corn (ZEAMX, var. Aventura); experiment: Pre-emergence crop plant compatibility, summary of Table E1; details: applied pre-emergence to soybean, wheat and corn at 80 g of active ingredient per hectare; summary in words
From the text: as §1

[7] = test system: Matricaria inodora (MATIN); experiment: Herbicidal post-emergence action (Table B7); details: rated visually after about 3 weeks, 100% = plants have died, 0% = like control plants
Summary of the method: (§3)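 Application rates of 1280 or 320 g/ha were tested post-emergence on one-leaf-stage greenhouse plants in sandy loam, using WP or EC formulations with 0.5% additive at 600 L/ha. Activity was rated visually against untreated plants about 3 weeks later.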

[8] = test system: Abutilon theophrasti (ABUTH); experiment: Herbicidal pre-emergence action, test D, single sowings (Table D4); details: dosage 80 g/ha, scored after about 3 weeks
From the text: as §2

[9] = test system: Amaranthus retroflexus (AMARE); experiment: Herbicidal pre-emergence action, test D, single sowings (Table D5); details: dosage 80 g/ha, scored after about 3 weeks
From the text: as §2

viola tricolor (VIOTR) = experiment: Herbicidal pre-emergence action, test D, single sowings (Table D7); details: dosage 80 g/ha, scored after about 3 weeks
From the text: as §2

Veronica persica (VERPE) [10] = experiment: Herbicidal post-emergence action (Table B12); details: visual rating about 3 weeks after treatment, 100% = plants have died, 0% = like control plants
Summary of the method: as §3

[11] = test system: Digitaria sanguinalis (DIGSA); experiment: Herbicidal pre-emergence action, test C (Table C10); details: visual scoring after about 3 weeks, 100% = plants have died, 0% = like control plants
Summary of the method: (§4)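 First, weed seeds were sown in sandy loam and covered with soil. Next, aqueous WP/EC preparations plus 0.5% additive were applied to the surface at 600 L/ha (1280 or 320 g/ha). Finally, plants grew in a greenhouse ~3 weeks before visual % scoring against controls.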

[12] = test system: Digitaria sanguinalis (DIGSA); experiment: Herbicidal post-emergence action (Table B10); details: visual rating about 3 weeks after treatment, 100% = plants have died, 0% = like control plants
Summary of the method: as §3

[13] = test system: Matricaria inodora (MATIN); experiment: Herbicidal pre-emergence action, test C (Table C7); details: visual scoring after about 3 weeks, 100% = plants have died, 0% = like control plants
Summary of the method: as §4

Bassia scoparia (KCHSC) [14] = experiment: Herbicidal post-emergence action (Table B11); details: visual rating about 3 weeks after treatment, 100% = plants have died, 0% = like control plants
Summary of the method: as §3

[15] = test system: Alopecurus myosuroides (ALOMY); experiment: Herbicidal pre-emergence action, test C (Table C9); details: visual scoring after about 3 weeks, 100% = plants have died, 0% = like control plants
Summary of the method: as §4

Bassia scoparia (KCHSC) [16] = experiment: Herbicidal pre-emergence action, test C (Table C11); details: visual scoring vs untreated controls
Summary of the method: as §4

Row | SMILES | Crop plant compatibility in pre-emergence, ZEAMX (damage to corn) [1] [%] | Crop plant compatibility in pre-emergence, GLXMA (damage to soybean) [2] [%] | Crop plant compatibility in pre-emergence, TRZAS (damage to wheat) [3] [%] | Pre-emergence action against Veronica persica (VERPE) (Veronica persica (VERPE) [4]) [%] | Pre-emergence action against Setaria viridis (SETVI) (Setaria viridis (SETVI)) [%] | Pre-emergence action against Digitaria sanguinalis (DIGSA) [5] [%] | crop plant tolerance in comparison with structurally similar pyrimidinyloxybenzenes (US 2016/333000 Ex. Nos. 53 and 144) [6] | Post-emergence action against Matricaria inodora (MATIN) ([7]; 1280 g/ha) [%] | Pre-emergence action against Abutilon theophrasti (ABUTH) [8] [%] | Post-emergence action against Veronica persica (VERPE) (Veronica persica (VERPE) [10]; dosage 320 g/ha) [%] | Post-emergence action against Veronica persica (VERPE) (Veronica persica (VERPE) [10]; dosage 1280 g/ha) [%] | Pre-emergence action against Digitaria sanguinalis (DIGSA) ([11]; dosage 1280 g/ha) [%] | Post-emergence action against Digitaria sanguinalis (DIGSA) ([12]; dosage 320 g/ha) [%] | Post-emergence action against Digitaria sanguinalis (DIGSA) ([12]; dosage 1280 g/ha) [%] | Pre-emergence action against Matricaria inodora (MATIN) ([13]; dosage 320 g/ha) [%] | Pre-emergence action against Matricaria inodora (MATIN) ([13]; dosage 1280 g/ha) [%] | Post-emergence action against Bassia scoparia (KCHSC) (Bassia scoparia (KCHSC) [14]; dosage 320 g/ha) [%] | Post-emergence action against Bassia scoparia (KCHSC) (Bassia scoparia (KCHSC) [14]; dosage 1280 g/ha) [%] | Pre-emergence action against Alopecurus myosuroides (ALOMY) ([15]; dosage 1280 g/ha) [%] | Pre-emergence action against Bassia scoparia (KCHSC) (Bassia scoparia (KCHSC) [16]; dosage 1280 g/ha) [%] | also measured
1 | Fc1cccc(Oc2ccc(Cl)cn2)c1-c1cc(C(F)F)no1 [Example 1-17] | 0 | 20 | 20 | 100 | 100 | 90 | significantly improved crop plant tolerance | 100 | 100 |  |  |  |  |  |  |  |  |  |  |  | Post-emergence action against Matricaria inodora (MATIN) ([7]; 320 g/ha): 100%; Pre-emergence action against Amaranthus retroflexus (AMARE) [9]: 100%; Pre-emergence action against viola tricolor (VIOTR) (viola tricolor (VIOTR)): 100%
2 | Cc1cccc(Oc2ccc(Cl)cn2)c1-c1cc(C(F)F)no1 [Example 1-18, 5-[2-[(5-Chloro-2-pyridyl)oxy]-6-methylphenyl]-3-(difluoromethyl)isoxazole] |  |  |  |  |  |  |  | 100 |  | 100 | 100 | 100 | 100 | 100 | 100 | 100 | 100 | 100 | 90 | 90 | Pre-emergence action against Digitaria sanguinalis (DIGSA) ([11]; dosage 320 g/ha): 100%
3 | Fc1cc(Cl)cnc1Oc1cccc(F)c1-c1cc(C(F)F)no1 [Example 1-19] | 10 | 20 | 30 | 100 | 100 | 100 | significantly improved crop plant tolerance | 100 | 100 |  |  |  |  |  | 100 | 100 |  |  |  |  | Pre-emergence action against Amaranthus retroflexus (AMARE) [9]: 100%; Pre-emergence action against viola tricolor (VIOTR) (viola tricolor (VIOTR)): 100%
4 | Cc1cccc(Oc2ncc(Cl)cc2F)c1-c1cc(C(F)F)no1 [Example 1-20] |  |  |  |  |  |  |  | 100 |  | 100 | 100 | 100 | 100 | 100 | 100 | 100 | 100 | 100 | 100 | 90 | Pre-emergence action against Digitaria sanguinalis (DIGSA) ([11]; dosage 320 g/ha): 90%; Pre-emergence action against Alopecurus myosuroides (ALOMY) ([15]; dosage 320 g/ha): 90%
5 | FC(F)c1cc(-c2ccccc2Oc2ccc(Cl)cn2)on1 [Example 1-35] | 10 | 20 | 0 | 100 | 100 | 100 | significantly improved crop plant tolerance |  | 80 | 100 | 100 | 100 | 90 | 100 | 90 | 100 | 100 | 100 | 90 | 90 | Pre-emergence action against Amaranthus retroflexus (AMARE) [9]: 100%; Pre-emergence action against viola tricolor (VIOTR) (viola tricolor (VIOTR)): 90%
6 | Fc1cc(Cl)cnc1Oc1ccccc1-c1cc(C(F)F)no1 [Example 1-36] | 20 | 10 | 0 | 100 | 80 | 100 | significantly improved crop plant tolerance |  | 100 | 100 | 100 | 100 | 100 | 100 |  |  | 100 | 100 | 100 | 90 | Pre-emergence action against Digitaria sanguinalis (DIGSA) ([11]; dosage 320 g/ha): 100%; Pre-emergence action against Alopecurus myosuroides (ALOMY) ([15]; dosage 320 g/ha): 90%; Pre-emergence action against Amaranthus retroflexus (AMARE) [9]: 100%; Pre-emergence action against viola tricolor (VIOTR) (viola tricolor (VIOTR)): 100%
7 | Fc1cccc(Oc2ccc(Br)cn2)c1-c1cc(C(F)F)no1 [Example 1-40] |  |  |  |  |  |  |  | 100 |  | 100 | 100 | 100 | 100 | 100 | 100 | 100 | 100 | 100 | 100 | 100 | Pre-emergence action against Digitaria sanguinalis (DIGSA) ([11]; dosage 320 g/ha): 100%; Post-emergence action against Matricaria inodora (MATIN) ([7]; 320 g/ha): 100%; Pre-emergence action against Alopecurus myosuroides (ALOMY) ([15]; dosage 320 g/ha): 100%; Pre-emergence action against Bassia scoparia (KCHSC) (Bassia scoparia (KCHSC) [16]; dosage 320 g/ha): 100%
